The values that follow come from the NIST ThermoML archive (doi:10.1016/j.fluid.2011.09.011).

± gives the expanded uncertainty stated by the source.

For orientation: mass density means mass per unit of volume.

For the data set the following is noted: 298.15 K; 101.33 kPa; Liquid; Vibrating tube method.

Regarding `CCCCn1cc[n+](C)c1.F[B-](F)(F)F` [1-butyl-3-methylimidazolium tetrafluoroborate], the mass density was 1203.76 ± 7.9 kg/m3. As for `CCOS(=O)(=O)[O-].CCn1cc[n+](C)c1` [1-ethyl-3-methylimidazolium ethyl sulfate], the mass density stood at 1236.55 ± 8.3 kg/m3.
